Type in all cases: cell-based
In one assay the target is T1, human A1 receptor (Homo sapiens, UniProt P30542).
T1 construct: expressed in transfected cells; host or cells: CHO
T1 sequence (P30542 1-326): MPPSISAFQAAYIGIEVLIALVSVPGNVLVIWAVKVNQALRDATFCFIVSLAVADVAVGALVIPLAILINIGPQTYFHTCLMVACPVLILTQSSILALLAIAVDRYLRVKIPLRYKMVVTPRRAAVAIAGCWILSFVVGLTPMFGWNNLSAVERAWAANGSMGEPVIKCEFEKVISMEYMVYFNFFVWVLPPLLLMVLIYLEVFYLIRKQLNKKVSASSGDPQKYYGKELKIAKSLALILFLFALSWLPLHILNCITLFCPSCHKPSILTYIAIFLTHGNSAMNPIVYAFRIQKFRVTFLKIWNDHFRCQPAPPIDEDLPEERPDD
In words: cAMP HTRF functional assay, recombinant CHO cells expressing human A1 receptor, forskolin and agonist CPA. As for the experimental part: (§1) The functional activities of human A2A, A2B, A1 and A3 receptors were determined by quantification of cAMP, being the second messenger for adenosine receptors.
(§2) For human A1 and A3 receptors, recombinant CHO cells, expressing either A1 or A3-receptor, were used. As both receptors couple to Gi proteins, the assay protocol was adapted:
(§3) Cells were seeded into 384-well plates, forskolin, test compounds and agonists (CPA for A1- and IB-MECA for A3-receptor) were added. After 30 min incubation, HTRF reagents (cAMP dynamic 2, Cis Bio) were added and the cellular cAMP levels were determined using the ENVISION (Perkin Elmer) plate reader.
(§4) Obtained raw data were normalized against the inhibitor control and the neural control (DMSO) and the normalized data were fitted using GeneData software.

For the next assay, the target named is T2, human A3 receptor (Homo sapiens, UniProt P0DMS8).
T2 construct: expressed in transfected cells; host or cells: CHO
T2 sequence (P0DMS8 1-318): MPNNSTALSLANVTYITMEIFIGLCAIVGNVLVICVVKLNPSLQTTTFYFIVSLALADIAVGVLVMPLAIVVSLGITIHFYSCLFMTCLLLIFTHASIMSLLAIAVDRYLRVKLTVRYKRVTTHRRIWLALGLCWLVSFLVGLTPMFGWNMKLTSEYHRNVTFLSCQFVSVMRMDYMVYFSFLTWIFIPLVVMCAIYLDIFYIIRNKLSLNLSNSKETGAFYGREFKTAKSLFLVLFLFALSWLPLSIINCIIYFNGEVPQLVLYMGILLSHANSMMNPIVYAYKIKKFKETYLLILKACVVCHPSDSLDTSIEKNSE
As to the kind of experiment: cAMP HTRF functional assay, recombinant CHO cells expressing human A3 receptor, forskolin and agonist IB-MECA. The protocol: as §1, §2, §3, §4
(TR-FRET usually uses a lanthanide donor and a delayed reading to cut background.)

A further assay deals with T3, human A2A receptor (Homo sapiens, UniProt P29274).
T3 construct: expressed in transfected cells; host or cells: HEK293
T3 sequence (P29274 whole entry): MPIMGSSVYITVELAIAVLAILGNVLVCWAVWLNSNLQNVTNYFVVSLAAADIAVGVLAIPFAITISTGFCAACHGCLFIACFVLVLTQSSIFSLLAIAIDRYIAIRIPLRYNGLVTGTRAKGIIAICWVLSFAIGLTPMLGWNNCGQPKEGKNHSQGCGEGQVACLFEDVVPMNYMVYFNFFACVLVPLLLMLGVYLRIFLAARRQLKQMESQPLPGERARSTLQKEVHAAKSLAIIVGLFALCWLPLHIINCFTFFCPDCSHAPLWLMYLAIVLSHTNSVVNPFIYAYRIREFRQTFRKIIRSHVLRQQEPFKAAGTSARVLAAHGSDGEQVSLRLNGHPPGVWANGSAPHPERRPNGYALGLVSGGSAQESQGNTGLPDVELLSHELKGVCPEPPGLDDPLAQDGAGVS
As to the kind of experiment: cAMP HTRF functional assay, recombinant HEK293 cells expressing human A2A receptor, agonist NECA. As for the experimental part:
as §1, §4

The target of a further assay is T4, A2B receptors (Homo sapiens, UniProt P29275).
T4 sequence (P29275 1-332): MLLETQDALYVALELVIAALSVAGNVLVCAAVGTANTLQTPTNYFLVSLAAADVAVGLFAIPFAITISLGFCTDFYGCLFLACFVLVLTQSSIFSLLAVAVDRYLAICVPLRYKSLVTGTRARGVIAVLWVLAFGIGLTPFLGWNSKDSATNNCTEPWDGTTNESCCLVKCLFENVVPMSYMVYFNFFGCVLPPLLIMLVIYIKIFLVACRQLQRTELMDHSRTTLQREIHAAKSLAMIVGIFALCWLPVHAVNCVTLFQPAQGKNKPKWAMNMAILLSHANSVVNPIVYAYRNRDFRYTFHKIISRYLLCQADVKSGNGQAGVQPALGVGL
As to the kind of experiment: cAMP HTRF functional assay, recombinant HEK293 cells expressing human A2B receptor, agonist NECA. Set-up: expressed in transfected cells; host or cells: HEK293. As for the experimental part:
as §1, §4

[1] abbreviates: recombinant HEK293 cells, cAMP, agonist NECA.

pIC50: −log10 of the molar value. Like-named read-outs stand apart in the source and are kept apart here.

Turning to `COc1ccc(-c2ccc(F)cc2)c2ncc(NC(=O)c3cnc(C)o3)nc12` [compound 131, N-[5-(4-fluorophenyl)-8-methoxyquinoxalin-2-yl]-2-methyl-1,3-oxazole-5-carboxamide], the pIC50 on human A1 receptor is > 6.00; on human A3 receptor it was > 6.00; at human A2A receptor, > 8.00; at A2B receptors it was > 7.00.

As to `COc1ccc(C2=CCOCC2)c2ncc(NC(=O)c3cnsc3)nc12` [compound 136, N-[5-(3,6-dihydro-2H-pyran-4-yl)-8-methoxyquinoxalin-2-yl]-1,2-thiazole-4-carboxamide], the pIC50 at human A1 receptor is > 6.00; on human A3 receptor it was < 6.00; at human A2A receptor it was > 8.00; on A2B receptors, > 7.00.

As to `COc1ncc(C2CCOCC2)c2ncc(NC(=O)C3CC3)nc12` [compound 106, Cyclopropanecarboxylic acid [5-methoxy-8-(tetrahydro-pyran-4-yl)-pyrido[3,4-b]pyrazin-3-yl]-amide], the pIC50 was > 6.00 at human A1 receptor, < 6.00 on human A3 receptor, > 8.00 at human A2A receptor and > 7.00 on A2B receptors.

For `COc1ccc(C2=CCOCC2)c2ncc(NC(=O)c3cnc(C)s3)nc12` [compound 134, N-[5-(3,6-dihydro-2H-pyran-4-yl)-8-methoxyquinoxalin-2-yl]-2-methyl-1,3-thiazole-5-carboxamide], the pIC50 was > 6.00 at human A1 receptor, < 6.00 on human A3 receptor, > 8.00 at human A2A receptor and > 7.00 on A2B receptors.

`COc1ccc(C2=CCOC2)c2ncc(NC(=O)C3CC3)nc12` [compound 141, N-[5-(2,5-dihydrofuran-3-yl)-8-methoxyquinoxalin-2-yl]cyclopropanecarboxamide]: the negative-log IC50 (pIC50) on human A1 receptor is > 6.00; on human A3 receptor, > 6.00; at human A2A receptor, > 7.00; at A2B receptors, > 7.00.

With `COc1ccc(-c2cc(F)ccc2F)c2ncc(NC(=O)C3CC3)nc12` [compound 124, N-[5-(2,5-difluorophenyl)-8-methoxyquinoxalin-2-yl]cyclopropanecarboxamide], the negative logarithm of the IC50 (pIC50) on human A1 receptor was > 6.00; at human A3 receptor, > 6.00; on human A2A receptor it was > 8.00; at A2B receptors it was < 6.00.

In the case of `COCCOc1cccc(-c2ccc(OC)c3nc(NC(=O)c4cnc(C)o4)cnc23)c1` [compound 148, N-{8-methoxy-5-[3-(2-methoxyethoxy)phenyl]quinoxalin-2-yl}-2-methyl-1,3-oxazole-5-carboxamide], the pIC50 at human A1 receptor is > 6.00; at human A3 receptor, < 6.00; at human A2A receptor, > 8.00; at A2B receptors, > 7.00.

For `COc1ccc(-c2cccnc2)c2ncc(NC(=O)C3CC3)nc12` [compound 121, N-[8-methoxy-5-(pyridin-3-yl)quinoxalin-2-yl]cyclopropanecarboxamide], the pIC50 was > 6.00 on human A1 receptor, > 6.00 on human A3 receptor, > 7.00 at human A2A receptor and > 6.00 at A2B receptors.

As for `COc1ccc(-c2cccnc2)c2ncc(NC(=O)c3cnc(C)o3)nc12` [compound 138, N-[8-methoxy-5-(pyridin-3-yl)quinoxalin-2-yl]-2-methyl-1,3-oxazole-5-carboxamide], the pIC50 at human A1 receptor is > 8.00; on human A3 receptor it was < 6.00; at human A2A receptor, > 7.00; on A2B receptors, > 7.00.

With `COc1ccc(-c2cc(F)ccc2F)c2ncc(NC(=O)c3cnc(C)o3)nc12` [compound 128, N-[5-(2,5-difluorophenyl)-8-methoxyquinoxalin-2-yl]-2-methyl-1,3-oxazole-5-carboxamide], the negative logarithm of the IC50 (pIC50) at human A1 receptor is < 6.00; on human A3 receptor, > 6.00; at human A2A receptor it was > 7.00.

With `COc1ccc(C2CCOCC2)c2ncc(NC(=O)c3coc(C)n3)nc12` [compound 16], the pIC50 on human A1 receptor is < 6.00; on human A3 receptor, < 6.00; at human A2A receptor, > 7.00; on A2B receptors it was < 6.00.

As to `COCCOc1cccc(-c2ccc(OC)c3nc(NC(=O)c4nnc(C)s4)cnc23)c1` [compound 152, N-{8-methoxy-5-[3-(2-methoxyethoxy)phenyl]quinoxalin-2-yl}-5-methyl-1,3,4-thiadiazole-2-carboxamide], the negative-log IC50 (pIC50) on human A3 receptor is < 6.00; at human A2A receptor, > 7.00.

On to `COCCOCc1cccc(-c2ccc(OC)c3nc(NC(=O)N4CCC(C)(O)CC4)cnc23)c1` [compound 118, 4-hydroxy-N-(8-methoxy-5-{3-[(2-methoxyethoxy)methyl]phenyl}quinoxalin-2-yl)-4-methylpiperidine-1-carboxamide], for which the negative-log IC50 (pIC50) was < 6.00 at human A1 receptor, < 6.00 at human A3 receptor, > 7.00 at human A2A receptor and < 6.00 at A2B receptors.

In the case of “4-hydroxy-N-[8-methoxy-5-(2-methylphenyl)quinoxalin-2-yl]-4-methylpiperidine-1-carboxamide [compound 29]”, the negative-log IC50 (pIC50) on human A1 receptor is < 6.00; on human A3 receptor, < 6.00; at human A2A receptor (setting [1]), > 7.00; at A2B receptors (setting [1]), > 6.00.

In the case of `COCCOc1cccc(-c2ccc(OC)c3nc(NC(=O)C4CC4)cnc23)c1` [compound 147, N-{8-methoxy-5-[3-(2-methoxyethoxy)phenyl]quinoxalin-2-yl}cyclopropanecarboxamide], the negative-log IC50 (pIC50) on human A1 receptor is > 6.00; at human A3 receptor it was > 6.00; on human A2A receptor it was > 8.00; on A2B receptors it was > 7.00.

As to `COCCOc1cccc(-c2ccc(OC)c3nc(NC(=O)c4cnc(C)s4)cnc23)c1` [compound 151, N-{8-methoxy-5-[3-(2-methoxyethoxy)phenyl]quinoxalin-2-yl}-2-methyl-1,3-thiazole-5-carboxamide], the pIC50 on human A1 receptor is > 6.00; on human A3 receptor, < 6.00; on human A2A receptor, > 7.00; on A2B receptors, < 6.00.

On to `COc1ccc(-c2ccccc2F)c2ncc(NC(=O)C3CC3)nc12` [compound 120, N-[5-(2-fluorophenyl)-8-methoxyquinoxalin-2-yl]cyclopropanecarboxamide], for which the negative-log IC50 (pIC50) on human A1 receptor is > 6.00; at human A3 receptor, > 6.00; at human A2A receptor, > 8.00; on A2B receptors, > 7.00.

On to `COc1ccc(-c2ccccc2)c2ncc(NC(=O)C3(C(=O)N(C)C)CC3)nc12` [compound 149, N′1-(8-methoxy-5-phenylquinoxalin-2-yl)-N1,N1-dimethylcyclopropane-1,1-dicarboxamide], for which the pIC50 on human A1 receptor is < 6.00; on human A3 receptor, > 6.00; at human A2A receptor, > 7.00.

Turning to `COc1ccc(-c2cccc(F)c2F)c2ncc(NC(=O)C3CC3)nc12` [compound 123, N-[5-(2,3-difluorophenyl)-8-methoxyquinoxalin-2-yl]cyclopropanecarboxamide], the pIC50 on human A1 receptor is > 6.00; on human A3 receptor it was > 6.00; at human A2A receptor, > 8.00; on A2B receptors, > 7.00.

In the case of `COc1ccc(N2CCCCCC2)c2ncc(NC(=O)C3CC3)nc12` [compound 122, N-[5-(azepan-1-yl)-8-methoxyquinoxalin-2-yl]cyclopropanecarboxamide], the negative logarithm of the IC50 (pIC50) is < 6.00 on human A1 receptor, < 6.00 on human A3 receptor and > 7.00 on human A2A receptor.

As for `COc1ccc(-c2ccccc2)c2ncc(NC(=O)c3cnc(C)o3)nc12` [compound 105, N-(8-methoxy-5-phenylquinoxalin-2-yl)-2-methyl-1,3-oxazole-5-carboxamide], the negative logarithm of the IC50 (pIC50) on human A1 receptor was > 6.00; on human A3 receptor, > 6.00; on human A2A receptor, > 8.00; at A2B receptors, > 7.00.

Take `COc1ccc(-c2ccc(F)cc2)c2ncc(NC(=O)C3CC3)nc12` [compound 126, N-[5-(4-fluorophenyl)-8-methoxyquinoxalin-2-yl]cyclopropanecarboxamide]: the negative-log IC50 (pIC50) on human A1 receptor is > 6.00; on human A3 receptor it was > 6.00; on human A2A receptor it was > 8.00; at A2B receptors, > 7.00.

As usually defined, the pIC50 is −log10 of the IC50, conventionally taken in molar units.
